Measurements taken from PMC3735122 (mBio, 2013).

What was measured:
Format in all cases: cell-based, influenza virus H7N9
A/Shanghai/2/2013 virus = assay: organism not typed
[1] = test system: A/Shanghai/1/2013-NA^R292 (WT no. 6) virus; assay: organism not typed
[2] = test system: A/Shanghai/1/13 virus (mixed R/K at NA residue 292)
[3] = MDCK, read-out: 90% effective concentration [EC90]

Row | Structure (SMILES) | concentration at which replication was completely inhibited (A/Shanghai/2/2013 virus) [µM] | concentration at which replication was completely inhibited [1] [µM] | sensitivity in MDCK cells compared to the A/Shanghai/2/2013 virus [1] | sensitivity in MDCK cells relative to the A/Shanghai/2/2013 virus [2] | EC90 (A/Shanghai/2/2013 virus; [3]) [µM] | EC90 [1, 3] [µM]
1 | CC(=O)N[C@H]1[C@H]([C@H](O)[C@H](O)CO)OC(C(=O)O)=C[C@@H]1N=C(N)N [zanamivir] | 125 | > 125 | reduced sensitivity |  |  | 
2 | NC(=O)c1nc(F)c[nH]c1=O [favipiravir] |  |  |  | comparable dose-response curves | 1.43 | 10.4
3 | CCC(CC)O[C@@H]1C=C(C(=O)O)C[C@H](N)[C@H]1NC(C)=O [oseltamivir carboxylate] | 31.25 | 250 | reduced sensitivity |  |  | 
